From patent US11208412B2 (DAEGU-GYEONGBUK MEDICAL INNOVATION FOUNDATION, priority 2017, dated 2021)
Where two headings read alike, the source gives them in different places.

What was measured:
Experiment in all cases: Kinase selectivity, DiscoverX scanMAX Kinase assay panel (% control)
Assay type in all cases: binding
[1] = molecular target: T1, kinases of the scanMAX Kinase assay panel (Homo sapiens, UniProt O43293); details: DAPK3; 1 uM
T1 construct: purchased DiscoverX Co. (contract measurement) scanMAX Kinase assay panel
Outline: (§1)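 A 1 uM DMSO solution of compound was applied across the panel kinases, and results were expressed as % control relative to DMSO (100%) and a positive control (0%).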

[2] = molecular target: T2, kinases of the scanMAX Kinase assay panel (Homo sapiens, UniProt Q6P3R8); details: NEK5; 1 uM
T2 construct: purchased DiscoverX Co. (contract measurement) scanMAX Kinase assay panel
T2 sequence (Q6P3R8 1-708): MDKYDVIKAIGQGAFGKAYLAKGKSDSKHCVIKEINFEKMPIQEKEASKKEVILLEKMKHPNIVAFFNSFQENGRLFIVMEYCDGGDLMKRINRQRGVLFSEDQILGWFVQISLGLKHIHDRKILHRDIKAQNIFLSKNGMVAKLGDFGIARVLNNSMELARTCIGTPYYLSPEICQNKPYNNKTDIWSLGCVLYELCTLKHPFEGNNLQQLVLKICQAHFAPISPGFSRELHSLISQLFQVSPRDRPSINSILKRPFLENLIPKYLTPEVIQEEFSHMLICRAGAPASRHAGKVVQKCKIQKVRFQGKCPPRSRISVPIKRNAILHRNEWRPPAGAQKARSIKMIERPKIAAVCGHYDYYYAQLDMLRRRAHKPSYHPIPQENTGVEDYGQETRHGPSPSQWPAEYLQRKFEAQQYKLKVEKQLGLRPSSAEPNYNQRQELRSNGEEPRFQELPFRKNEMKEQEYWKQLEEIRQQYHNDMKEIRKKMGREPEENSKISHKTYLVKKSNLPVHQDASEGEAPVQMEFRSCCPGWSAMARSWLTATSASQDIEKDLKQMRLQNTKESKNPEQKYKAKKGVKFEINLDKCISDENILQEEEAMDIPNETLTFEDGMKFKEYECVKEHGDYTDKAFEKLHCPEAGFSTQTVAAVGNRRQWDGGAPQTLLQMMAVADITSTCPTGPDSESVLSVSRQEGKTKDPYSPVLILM
Outline: as §1

[3] = molecular target: T3, kinases of the scanMAX Kinase assay panel (Homo sapiens, UniProt Q92772); details: CDKL2; 1 uM
T3 construct: purchased DiscoverX Co. (contract measurement) scanMAX Kinase assay panel
T3 sequence (Q92772 1-493): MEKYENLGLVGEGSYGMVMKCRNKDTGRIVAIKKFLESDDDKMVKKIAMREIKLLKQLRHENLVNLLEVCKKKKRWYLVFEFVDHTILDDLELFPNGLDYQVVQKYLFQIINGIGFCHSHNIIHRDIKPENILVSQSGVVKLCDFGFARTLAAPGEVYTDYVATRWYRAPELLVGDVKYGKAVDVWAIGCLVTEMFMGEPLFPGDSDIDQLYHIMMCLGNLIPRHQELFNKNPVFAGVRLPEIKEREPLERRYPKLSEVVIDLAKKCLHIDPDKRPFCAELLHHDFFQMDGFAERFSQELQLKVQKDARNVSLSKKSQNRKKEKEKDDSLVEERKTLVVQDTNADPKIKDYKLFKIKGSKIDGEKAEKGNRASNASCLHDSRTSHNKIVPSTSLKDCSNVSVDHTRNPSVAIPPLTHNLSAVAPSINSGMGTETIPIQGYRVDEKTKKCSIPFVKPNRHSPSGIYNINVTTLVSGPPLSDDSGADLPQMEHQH
Outline: as §1

[4] = molecular target: T4, kinases of the scanMAX Kinase assay panel (Homo sapiens, UniProt Q6DT37); details: DMPK2; 1 uM
T4 construct: purchased DiscoverX Co. (contract measurement) scanMAX Kinase assay panel
Outline: as §1

[5] = molecular target: T5, kinases of the scanMAX Kinase assay panel (Homo sapiens, UniProt P00519, T315I); details: 1 uM
T5 construct: purchased DiscoverX Co. (contract measurement) scanMAX Kinase assay panel
Outline: as §1

[6] = molecular target: T6, kinases of the scanMAX Kinase assay panel (Homo sapiens, UniProt O75582); details: 1 uM in DMSO
T6 construct: purchased DiscoverX Co. (contract measurement) scanMAX Kinase assay panel
Outline: as §1

[7] = molecular target: T7, kinases of the scanMAX Kinase assay panel (Homo sapiens, UniProt Q9P286); details: PAK7; 1 uM
T7 construct: purchased DiscoverX Co. (contract measurement) scanMAX Kinase assay panel
Outline: as §1

[8] = molecular target: T8, kinases of the scanMAX Kinase assay panel (Homo sapiens, UniProt Q8TBX8); details: PIP5K2C; 1 uM
T8 construct: purchased DiscoverX Co. (contract measurement) scanMAX Kinase assay panel
T8 sequence (Q8TBX8 1-421): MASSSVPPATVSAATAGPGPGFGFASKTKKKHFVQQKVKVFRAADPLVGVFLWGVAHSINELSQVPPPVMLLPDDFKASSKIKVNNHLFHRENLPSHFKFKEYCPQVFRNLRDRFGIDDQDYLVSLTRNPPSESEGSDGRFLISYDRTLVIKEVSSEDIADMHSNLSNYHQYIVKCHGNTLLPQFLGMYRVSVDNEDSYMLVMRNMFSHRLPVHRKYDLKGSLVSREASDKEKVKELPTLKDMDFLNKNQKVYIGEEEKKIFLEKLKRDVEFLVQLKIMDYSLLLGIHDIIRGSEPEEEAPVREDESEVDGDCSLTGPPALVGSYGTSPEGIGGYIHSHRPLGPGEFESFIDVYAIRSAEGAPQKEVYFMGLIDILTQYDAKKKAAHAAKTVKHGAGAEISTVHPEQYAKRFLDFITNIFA
Outline: as §1

[9] = molecular target: T9, kinases of the scanMAX Kinase assay panel (Homo sapiens, UniProt P12931); details: kinase SRC; 1 uM in DMSO
T9 construct: purchased DiscoverX Co. (contract measurement) scanMAX Kinase assay panel
Outline: as §1

[10] = kinase RPS6KA5(Kin.Dom.1-N-terminal), read-out: % control, RPS6KA5(Kin.Dom.1-N-terminal)
[11] = kinase RPS6KA5(Kin.Dom.2-C-terminal), read-out: % control, RPS6KA5(Kin.Dom.2-C-terminal)

T4 sequence (Q6DT37 whole entry): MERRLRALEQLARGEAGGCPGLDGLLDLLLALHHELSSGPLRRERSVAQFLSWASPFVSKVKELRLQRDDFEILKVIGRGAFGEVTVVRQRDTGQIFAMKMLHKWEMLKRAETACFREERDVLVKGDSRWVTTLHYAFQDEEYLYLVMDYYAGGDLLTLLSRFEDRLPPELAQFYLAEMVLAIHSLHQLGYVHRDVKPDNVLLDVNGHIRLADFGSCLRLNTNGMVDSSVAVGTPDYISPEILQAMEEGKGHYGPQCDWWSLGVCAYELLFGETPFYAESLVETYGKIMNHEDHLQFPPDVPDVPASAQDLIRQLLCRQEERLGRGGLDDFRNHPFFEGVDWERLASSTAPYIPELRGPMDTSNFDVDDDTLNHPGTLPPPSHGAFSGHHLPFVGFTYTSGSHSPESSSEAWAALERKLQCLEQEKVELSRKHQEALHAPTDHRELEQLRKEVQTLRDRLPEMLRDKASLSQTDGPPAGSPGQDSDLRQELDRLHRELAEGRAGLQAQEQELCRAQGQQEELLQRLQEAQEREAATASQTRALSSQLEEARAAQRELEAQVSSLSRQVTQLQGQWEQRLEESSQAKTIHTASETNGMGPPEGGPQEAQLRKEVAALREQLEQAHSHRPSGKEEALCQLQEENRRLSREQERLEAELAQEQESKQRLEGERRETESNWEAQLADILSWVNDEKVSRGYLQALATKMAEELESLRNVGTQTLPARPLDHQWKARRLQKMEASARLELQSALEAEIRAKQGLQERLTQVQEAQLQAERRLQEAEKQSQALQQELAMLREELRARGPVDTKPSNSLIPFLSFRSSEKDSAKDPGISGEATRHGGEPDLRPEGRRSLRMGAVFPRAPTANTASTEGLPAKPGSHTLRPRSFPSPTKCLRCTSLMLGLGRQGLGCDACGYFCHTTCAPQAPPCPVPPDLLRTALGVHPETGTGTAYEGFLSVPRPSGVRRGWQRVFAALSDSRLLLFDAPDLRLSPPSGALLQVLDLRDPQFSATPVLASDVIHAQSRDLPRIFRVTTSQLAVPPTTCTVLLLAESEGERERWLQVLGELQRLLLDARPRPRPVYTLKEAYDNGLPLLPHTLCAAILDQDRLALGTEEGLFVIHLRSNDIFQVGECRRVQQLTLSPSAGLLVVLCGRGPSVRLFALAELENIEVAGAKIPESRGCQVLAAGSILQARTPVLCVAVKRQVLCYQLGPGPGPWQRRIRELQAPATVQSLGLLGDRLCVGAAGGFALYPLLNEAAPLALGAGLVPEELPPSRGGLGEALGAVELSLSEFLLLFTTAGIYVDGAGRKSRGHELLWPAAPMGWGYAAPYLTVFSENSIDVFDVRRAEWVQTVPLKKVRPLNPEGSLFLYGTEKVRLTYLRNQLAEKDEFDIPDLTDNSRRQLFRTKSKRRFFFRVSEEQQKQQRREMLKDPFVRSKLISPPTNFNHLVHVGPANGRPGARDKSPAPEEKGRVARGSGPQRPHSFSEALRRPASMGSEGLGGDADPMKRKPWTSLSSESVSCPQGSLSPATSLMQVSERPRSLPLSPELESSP
T1 sequence (O43293 whole entry): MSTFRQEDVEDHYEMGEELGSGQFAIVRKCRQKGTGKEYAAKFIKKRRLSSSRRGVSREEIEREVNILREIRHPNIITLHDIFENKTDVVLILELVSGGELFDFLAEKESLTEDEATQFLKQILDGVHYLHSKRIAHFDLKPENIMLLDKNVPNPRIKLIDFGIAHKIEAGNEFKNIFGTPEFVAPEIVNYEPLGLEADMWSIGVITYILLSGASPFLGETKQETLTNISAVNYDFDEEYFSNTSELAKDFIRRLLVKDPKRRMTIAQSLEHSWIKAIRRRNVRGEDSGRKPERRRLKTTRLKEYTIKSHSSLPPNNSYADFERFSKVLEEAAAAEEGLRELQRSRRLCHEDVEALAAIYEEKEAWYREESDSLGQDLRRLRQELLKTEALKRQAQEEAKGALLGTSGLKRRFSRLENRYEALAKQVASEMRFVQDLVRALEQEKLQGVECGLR
T9 sequence (P12931 whole entry): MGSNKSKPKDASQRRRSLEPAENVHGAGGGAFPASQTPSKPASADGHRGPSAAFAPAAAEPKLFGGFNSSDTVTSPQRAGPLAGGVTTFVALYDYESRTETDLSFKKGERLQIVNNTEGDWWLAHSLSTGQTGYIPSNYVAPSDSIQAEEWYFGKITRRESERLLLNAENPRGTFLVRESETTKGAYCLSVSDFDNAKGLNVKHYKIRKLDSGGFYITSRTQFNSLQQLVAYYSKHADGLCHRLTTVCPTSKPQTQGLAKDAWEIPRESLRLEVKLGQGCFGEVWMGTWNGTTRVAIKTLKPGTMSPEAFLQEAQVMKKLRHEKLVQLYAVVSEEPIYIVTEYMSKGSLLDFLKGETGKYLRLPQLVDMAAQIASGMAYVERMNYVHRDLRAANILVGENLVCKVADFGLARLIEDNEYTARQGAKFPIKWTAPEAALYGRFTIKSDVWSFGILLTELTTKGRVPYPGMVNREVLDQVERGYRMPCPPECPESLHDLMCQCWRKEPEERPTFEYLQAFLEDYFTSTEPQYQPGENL
T7 sequence (Q9P286 whole entry): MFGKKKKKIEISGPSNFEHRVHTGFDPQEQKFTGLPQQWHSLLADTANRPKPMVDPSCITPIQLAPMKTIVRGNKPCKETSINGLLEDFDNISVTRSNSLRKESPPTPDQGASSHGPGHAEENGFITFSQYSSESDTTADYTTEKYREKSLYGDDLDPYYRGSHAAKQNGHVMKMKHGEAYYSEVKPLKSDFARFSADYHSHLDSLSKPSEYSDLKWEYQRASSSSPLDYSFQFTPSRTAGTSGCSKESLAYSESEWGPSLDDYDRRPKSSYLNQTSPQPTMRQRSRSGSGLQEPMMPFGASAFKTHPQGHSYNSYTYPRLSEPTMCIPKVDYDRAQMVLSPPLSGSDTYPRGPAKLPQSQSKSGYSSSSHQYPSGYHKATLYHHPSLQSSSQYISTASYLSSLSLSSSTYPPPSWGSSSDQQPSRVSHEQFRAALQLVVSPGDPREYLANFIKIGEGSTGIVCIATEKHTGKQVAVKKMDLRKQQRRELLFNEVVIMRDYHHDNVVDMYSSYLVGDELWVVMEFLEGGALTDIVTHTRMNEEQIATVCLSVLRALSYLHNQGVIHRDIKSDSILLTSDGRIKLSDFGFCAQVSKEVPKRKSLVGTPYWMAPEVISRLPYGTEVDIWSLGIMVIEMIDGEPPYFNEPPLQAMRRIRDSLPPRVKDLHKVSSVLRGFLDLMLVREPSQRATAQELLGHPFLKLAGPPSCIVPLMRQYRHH
T6 sequence (O75582 whole entry): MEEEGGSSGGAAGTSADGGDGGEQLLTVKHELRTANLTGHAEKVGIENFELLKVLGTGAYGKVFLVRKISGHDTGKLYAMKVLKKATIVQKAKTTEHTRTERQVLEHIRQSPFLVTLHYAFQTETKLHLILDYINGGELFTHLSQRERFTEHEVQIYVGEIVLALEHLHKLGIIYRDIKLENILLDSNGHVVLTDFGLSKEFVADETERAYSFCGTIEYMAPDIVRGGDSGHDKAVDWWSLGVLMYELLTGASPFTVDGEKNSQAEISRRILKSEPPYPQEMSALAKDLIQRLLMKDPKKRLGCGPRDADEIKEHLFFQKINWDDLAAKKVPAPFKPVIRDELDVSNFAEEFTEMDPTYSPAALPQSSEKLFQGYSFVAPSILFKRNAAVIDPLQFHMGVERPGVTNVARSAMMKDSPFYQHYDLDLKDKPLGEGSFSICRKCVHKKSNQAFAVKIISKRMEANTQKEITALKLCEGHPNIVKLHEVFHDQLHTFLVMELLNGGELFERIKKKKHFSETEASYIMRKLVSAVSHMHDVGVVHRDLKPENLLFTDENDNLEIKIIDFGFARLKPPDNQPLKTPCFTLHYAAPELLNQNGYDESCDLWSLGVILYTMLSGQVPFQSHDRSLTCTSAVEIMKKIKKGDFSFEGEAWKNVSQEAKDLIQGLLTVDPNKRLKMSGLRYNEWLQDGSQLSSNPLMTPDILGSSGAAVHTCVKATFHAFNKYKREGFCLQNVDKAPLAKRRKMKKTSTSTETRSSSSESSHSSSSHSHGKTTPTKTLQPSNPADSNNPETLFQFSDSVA

SMILES: CNc1nc(Nc2ccc(C(=O)N3CCOCC3)cc2OC)nc2[nH]cc(C#N)c12 [Example 1, 2-((2-methoxy-4-(morpholine-4-carbonyl)phenyl)amino)-4-(methylamino)-7H-pyrrolo[2,3-d]pyrimidine-5-carbonitrile]
- remaining binding at 1 µM [1]: 12%
- remaining binding at 1 µM [2]: 98%
- remaining binding at 1 µM [3]: 99%
- remaining binding at 1 µM [4]: 90%
- remaining binding at 1 µM ([5]; ABL1(T315I)-nonphosphorylated): 83%
- remaining binding at 1 µM ([5]; ABL1(T315I)-phosphorylated): 59%
- remaining binding at 1 µM [6, 10]: 94%
- remaining binding at 1 µM [6, 11]: 12%
- remaining binding at 1 µM [7]: 91%
- remaining binding at 1 µM [8]: 4.5%
- remaining binding at 1 µM [9]: 90%

SMILES: CC1(Nc2nc(Nc3cnn([C@H]4CCN(C5COC5)C[C@@H]4F)c3Cl)nc3[nH]cc(C#N)c23)CC1 [Example 52, 2-((5-chloro-1-((3S,4S)-3-fluoro-1-(oxetane-3-yl)piperidine-4-yl)-1H-pyrazole-4-yl)amino)((1-methylcyclopropyl)amino)-7H-pyrrolo[2,3-d]pyrimidine-5-carbonitrile]
- remaining binding at 1 µM [1]: 8.4%
- remaining binding at 1 µM [2]: 99%
- remaining binding at 1 µM [3]: 73%
- remaining binding at 1 µM [4]: 81%
- remaining binding at 1 µM ([5]; ABL1(T315I)-nonphosphorylated): 0%
- remaining binding at 1 µM ([5]; ABL1(T315I)-phosphorylated): 0.05%
- remaining binding at 1 µM [6, 10]: 100%
- remaining binding at 1 µM [6, 11]: 24%
- remaining binding at 1 µM [7]: 0.25%
- remaining binding at 1 µM [8]: 0%
- remaining binding at 1 µM [9]: 4.6%

SMILES: CCNc1nc(Nc2ccc(C(=O)N3CCC(N4CCOCC4)CC3)cc2OC)nc2[nH]cc(C(F)(F)F)c12 [Example 104, (4-((4-(ethylamino)-5-(trifluoromethyl)-7H-pyrrolo[2,3-d]pyrimidine-2-yl)amino)-3-methoxyphenyl)(4-morpholinopiperidine-1-yl)methanone]
- remaining binding at 1 µM [1]: 56%
- remaining binding at 1 µM [2]: 95%
- remaining binding at 1 µM [3]: 100%
- remaining binding at 1 µM [4]: 100%
- remaining binding at 1 µM ([5]; ABL1(T315I)-nonphosphorylated): 100%
- remaining binding at 1 µM ([5]; ABL1(T315I)-phosphorylated): 98%
- remaining binding at 1 µM [6, 10]: 100%
- remaining binding at 1 µM [6, 11]: 83%
- remaining binding at 1 µM [7]: 85%
- remaining binding at 1 µM [8]: 77%
- remaining binding at 1 µM [9]: 100%
